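Growth conditions: 96-well plates. Treatment: test compound, 48 hours, 5 concentrations. Analysis: linear interpolation between bracketing concentrations; unreached endpoints set to highest concentration. TGI marks complete inhibition of growth.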
What was measured:
Assay in all cases: NCI anticancer screen, dose series, 48 h
CAKI-1 renal = tested on: CAKI-1 renal
SN12C renal = tested on: SN12C renal
U251 CNS = tested on: U251 CNS
IGROV1 ovarian = tested on: IGROV1 ovarian
MDA-N = tested on: MDA-N
T-47D breast = tested on: T-47D breast
ACHN renal = tested on: ACHN renal
HS 578T breast = tested on: HS 578T breast
NCI/ADR-RES ovarian = tested on: NCI/ADR-RES ovarian
UACC-62 melanoma = tested on: UACC-62 melanoma
SK-MEL-28 melanoma = tested on: SK-MEL-28 melanoma
CCRF-CEM leukemia = tested on: CCRF-CEM leukemia
A498 renal = tested on: A498 renal
M14 melanoma = tested on: M14 melanoma
TK-10 renal = tested on: TK-10 renal
MDA-MB-435 = tested on: MDA-MB-435
NCI-H460 lung = tested on: NCI-H460 lung
HCT-116 colon = tested on: HCT-116 colon
NCI-H23 lung = tested on: NCI-H23 lung
NCI-H522 lung = tested on: NCI-H522 lung
HL-60(TB) leukemia = tested on: HL-60(TB) leukemia
EKVX NSCLC = tested on: EKVX NSCLC
SK-MEL-5 melanoma = tested on: SK-MEL-5 melanoma
UO-31 renal = tested on: UO-31 renal
LOX IMVI melanoma = tested on: LOX IMVI melanoma
HCT-15 colon = tested on: HCT-15 colon
SF-539 CNS = tested on: SF-539 CNS
RPMI-8226 leukemia = tested on: RPMI-8226 leukemia
HT29 colon = tested on: HT29 colon
SW-620 colon = tested on: SW-620 colon
SNB-75 CNS = tested on: SNB-75 CNS
COLO 205 colon = tested on: COLO 205 colon
K-562 leukemia = tested on: K-562 leukemia
PC-3 prostate = tested on: PC-3 prostate
SR leukemia = tested on: SR leukemia
KM12 colon = tested on: KM12 colon
HOP-92 NSCLC = tested on: HOP-92 NSCLC
OVCAR-5 ovarian = tested on: OVCAR-5 ovarian
A549 NSCLC = tested on: A549 NSCLC
SF-268 CNS = tested on: SF-268 CNS
OVCAR-8 ovarian = tested on: OVCAR-8 ovarian
RXF 393 renal = tested on: RXF 393 renal
UACC-257 melanoma = tested on: UACC-257 melanoma
DU-145 prostate = tested on: DU-145 prostate
MDA-MB-231 breast = tested on: MDA-MB-231 breast
MCF7 breast = tested on: MCF7 breast
SF-295 CNS = tested on: SF-295 CNS
MOLT-4 leukemia = tested on: MOLT-4 leukemia
SK-OV-3 ovarian = tested on: SK-OV-3 ovarian
OVCAR-4 ovarian = tested on: OVCAR-4 ovarian
HOP-62 NSCLC = tested on: HOP-62 NSCLC
HCC-2998 colon = tested on: HCC-2998 colon
OVCAR-3 ovarian = tested on: OVCAR-3 ovarian
786-0 renal = tested on: 786-0 renal

O=CCOCc1cc2c(cc1Br)OCO2
TGI (CAKI-1 renal): 42.7 µM | TGI (SN12C renal): > 100 µM | TGI (U251 CNS): 90.5 µM | TGI (IGROV1 ovarian): > 100 µM | TGI (MDA-N): > 100 µM | TGI (T-47D breast): 61.6 µM | TGI (ACHN renal): 55.1 µM | TGI (HS 578T breast): 44.7 µM | TGI (NCI/ADR-RES ovarian): 40.4 µM | TGI (UACC-62 melanoma): > 100 µM | TGI (SK-MEL-28 melanoma): > 100 µM | TGI (CCRF-CEM leukemia): 47.7 µM | TGI (A498 renal): > 100 µM | TGI (M14 melanoma): 46.7 µM | TGI (TK-10 renal): > 100 µM | TGI (MDA-MB-435): > 100 µM | TGI (NCI-H460 lung): > 100 µM | TGI (HCT-116 colon): 45 µM | TGI (NCI-H23 lung): 28.7 µM | TGI (NCI-H522 lung): 33.3 µM | TGI (HL-60(TB) leukemia): 48.8 µM | TGI (EKVX NSCLC): > 100 µM | TGI (SK-MEL-5 melanoma): 36.1 µM | TGI (UO-31 renal): 42.9 µM | TGI (LOX IMVI melanoma): 47.1 µM | TGI (HCT-15 colon): 46.1 µM | TGI (SF-539 CNS): 50.2 µM | TGI (RPMI-8226 leukemia): > 100 µM | TGI (HT29 colon): 38.6 µM | TGI (SW-620 colon): 50.3 µM | TGI (SNB-75 CNS): > 100 µM | TGI (COLO 205 colon): > 100 µM | TGI (K-562 leukemia): > 100 µM | TGI (PC-3 prostate): 59.6 µM | TGI (SR leukemia): 68.1 µM | TGI (KM12 colon): > 100 µM | TGI (HOP-92 NSCLC): > 100 µM | TGI (OVCAR-5 ovarian): > 100 µM | TGI (A549 NSCLC): > 100 µM | TGI (SF-268 CNS): 47.8 µM | TGI (OVCAR-8 ovarian): 52.5 µM | TGI (RXF 393 renal): > 100 µM | TGI (UACC-257 melanoma): > 100 µM | TGI (DU-145 prostate): > 100 µM | TGI (MDA-MB-231 breast): 44.4 µM | TGI (MCF7 breast): 42.9 µM | TGI (SF-295 CNS): > 100 µM | TGI (MOLT-4 leukemia): > 100 µM | TGI (SK-OV-3 ovarian): > 100 µM | TGI (OVCAR-4 ovarian): 45.8 µM | TGI (HOP-62 NSCLC): > 100 µM | TGI (HCC-2998 colon): > 100 µM | TGI (OVCAR-3 ovarian): 35.7 µM | TGI (786-0 renal): 36.7 µM

— PubChem BioAssay (NCI)
